In patent publication US20090239846A1, “Novel Compounds” (Glaxo Group Limited, priority 2005, published 2009):
Where a name gives a salt, the structure may show the parent alone. Read-outs that look alike come from different tables or passages of the source.

Tests used:
TNFalpha = experiment: LPS-stimulated cytokine production in human whole blood; format: cell-based
Description: Assay: Test compound concentrations were prepared at 10× concentrations and LPS prepared at 1 ug/ml (final conc. of 50 ng/ml LPS) and added in 50 uL volumes to 1.5 mL eppendorf tubes. Heparinized human whole blood was obtained from healthy volunteers and was dispensed into eppendorf tubes or multiwell plates containing compounds and LPS in 0.2-0.4 mL volumes and the tubes incubated at 37 C. In some studies, compound was incubated with blood for up to 30 min prior to addition of LPS. Following a 4 hour incubation, the tubes or plates were centrifuged to remove cells and plasma was withdrawn and frozen at −80 C. Cytokine measurement: IL-1beta and/or TNFalpha were quantified using a standardized ELISA, or similar technology. Concentrations of IL-1beta or TNFalpha were determined from standard curves of the appropriate cytokine and IC50 values for test compound (concentration that inhibited 50% of LPS-stimulated cytokine production) were calculated by linear regression analysis.

Recombinant human p38α [1] = molecular target: T1, Recombinant human p38α (Homo sapiens, UniProt Q16539); experiment: Fluorescence anisotropy kinase binding assay (standard or low volume); details: for active in the assay (pIC50, p38α binding): 12 nM p38α, 5 nM fluorescent ligand
T1 construct: GST; made in house
T1 sequence (Q16539 whole entry): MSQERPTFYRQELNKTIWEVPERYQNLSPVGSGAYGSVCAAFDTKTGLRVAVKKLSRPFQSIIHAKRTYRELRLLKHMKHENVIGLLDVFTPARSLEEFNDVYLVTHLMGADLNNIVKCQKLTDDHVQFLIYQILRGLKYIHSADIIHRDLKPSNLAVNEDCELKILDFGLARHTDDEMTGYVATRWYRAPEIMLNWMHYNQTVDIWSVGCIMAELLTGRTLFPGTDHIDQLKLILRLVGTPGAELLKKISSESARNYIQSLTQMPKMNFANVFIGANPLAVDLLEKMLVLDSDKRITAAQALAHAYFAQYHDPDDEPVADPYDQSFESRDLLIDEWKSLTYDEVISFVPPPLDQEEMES
Summary of the method: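 Activated GST-tagged recombinant human p38α (pre-activated with MBP-MKK6 DD) at 12 nM final with 5 nM rhodamine green-labelled pyridinylimidazole tracer in pH 7.5 HEPES/CHAPS/DTT/MgCl2 buffer. Test compound 0.28 nM–16.6 μM or 0.02 nM–25 μM final, 3% or 1.7% DMSO; 30–60 min at room temperature. Fluorescence anisotropy read (ex 485/em 535 nm) for Ki.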

Recombinant human p38α [2] = molecular target: T1, Recombinant human p38α; experiment: Time-resolved fluorescence resonance energy transfer (TR-FRET) kinase assay (standard or low volume); format: biochemical
Description: […] To activate this protein, 3 μM unactivated p38α was incubated in 200 mM Hepes pH 7.4, 625 mM NaCl, 1 mM DTT with 27 nM active MKK6 (Upstate), 1 mM ATP and 10 mM MgCl2 The activity of the MKK6-activated p38α was assessed using a time-resolved fluorescence resonance energy transfer (TR-FRET) assay. Biotinylated-GST-ATF2 (residues 19-96, 400 nM final), ATP ([…]) and MgCl2 (5 mM final) in assay buffer (40 mM HEPES pH 7.4, 1 mM DTT) were added to wells containing 1 ul of various concentrations of compound or DMSO vehicle (3% final) in NUNC 384 well black plate. The reaction was initiated by the addition of MKK6-activated p38 (100 pM final) to give a total volume of 30 ul. The reaction was incubated for 120 minutes at room temperature, then terminated by the addition of 15 μl of 100 mM EDTA pH 7.4. Detection reagent (15 μl) in buffer (100 mM HEPES pH 7.4, 150 mM NaCl, 0.1% w/v BSA, 1 mM DTT) containing antiphosphothreonine-ATF2-71 polyclonal antibody (Cell Signalling Technology, Beverly Mass., USA) labelled with W-1024 europium chelate (Wallac OY, Turku, Finland), and APC-labelled streptavidin (Prozyme, San Leandro, Calif., USA) was added and the reaction was further incubated for 60 minutes at room temperature. The degree of phosphorylation of GST-ATF2 was measured using a Packard Discovery plate reader (Perkin-Elmer Life Sciences, Pangbourne, UK) as a ratio of specific 665 nm energy transfer signal to reference europium 620 nm signal.
[…] To activate this protein, 3 μM unactivated p38α was incubated in 200 mM Hepes pH7.4, 625 mM NaCl, 1 mM DTT with 27 nM active MKK6 (Upstate), 1 mM ATP and 10 mM MgCl2 The activity of the MKK6-activated p38α was assessed using a time-resolved fluorescence resonance energy transfer (TR-FRET) assay. Biotinylated-GST-ATF2 (residues 19-96, 400 nM final), ATP (125 μM final) and MgCl2 (5 mM final) in assay buffer (40 mM HEPES pH 7.4, 1 mM DTT) were added to wells containing 0.1 μl of various concentrations of compound or DMSO vehicle (1.7% final) in Greiner low volume 384 well black plate. The reaction was initiated by the addition of MKK6-activated p38α (100 pM final) to give a total volume of 6 μl. The reaction was incubated for 120 minutes at room temperature, then terminated by the addition of 3 μl of detection reagent in buffer (100 mM HEPES pH 7.4, 150 mM NaCl, 0.1% w/v BSA, 1 mM DTT, 100 mM EDTA) containing antiphosphothreonine-ATF2-71 polyclonal antibody (Cell Signalling Technology, Beverly Mass., USA) labelled with W-1024 europium chelate (Wallac OY, Turku, Finland), and APC-labelled streptavidin (Prozyme, San Leandro, Calif., USA). The reaction was further incubated for 60 minutes at room temperature. The degree of phosphorylation of GST-ATF2 was measured using a BMG Rubystar plate reader (BMG, UK) as a ratio of specific 665 nm energy transfer signal to reference europium 620 nm signal. It is noted that there are two assay formats shown above for the Time-resolved fluorescence resonance energy transfer kinase assay. The only difference between these two assays is the volume used and the plate type. […] The results described herein may have been performed in either assay format and are not differentiated as to which.

[3] = system: IL-8 production by human neutrophils; experiment: TNF-stimulated IL-8 production from human neutrophils; format: cell-based; details: Neutrophil, bound, not more than 50% inhibition at 100 nM, read-out: IC50
Description: TNF-Stimulated IL-8 Production from Human Neutrophils The effect of test compounds on TNF-stimulated IL8 production by human neutrophils is measured as follows. Neutrophils are prepared from blood obtained from consenting donors, using standard methods. Blood is collected in heparinized syringes and layered over histopaque (30 ml/20 ml). Following centrifugation, the red cell pellet is resuspended in PBS and purified over a dextran gradient. Red blood cells are lysed with water for 40 sec, remaining granulocytes collected by centrifugation and resuspended at 1.5×10̂6 cells/ml. Cells are added (0.5-1 ml) to 48 well plates already containing compound at 1000×final concentration in neat DMSO or 10% DMSO in RPMI1640 with 10% FBS. TNF (final concentration 100 ng/ml) is used as the stimulus. Cells incubated for approximately 20 hrs at 37° C., 5% CO2. Levels of IL-8 in the cell free supernatant are determined by sandwich ELISA, and inhibition relative to a control with DMPO but no compound is calculated.

[4] = LPS-stimulated TNF-alpha, bound, read-out: IC50
[5] = bound, read-out: apparent pIC50 (converted)
[6] = second end given as 'less than', read-out: pIC50, broad range of data upon multiple runs (converted)
[7] = bound, read-out: pIC50 (converted)

CNC(=O)c1ccc(C)c(-c2nc(S(C)(=O)=O)nc3c2CNC(=O)N3c2c(F)cccc2F)c1 [163(b), 3-[8-(2,6-difluorophenyl)-2-(methylsulfonyl)-7-oxo-5,6,7,8-tetrahydropyrimido[4,5-d]pyrimidin-4-yl]-N,4-dimethylbenzamide]
IC50 (TNFalpha; [4]): > 1000 nM
active in the assay (pIC50, p38α binding) (Recombinant human p38α [1]): active

CCN(CC)C(=O)c1ccc(C)c(-c2nc(N(C)CCCN(C)C)nc3c2CNC(=O)N3c2c(F)cccc2F)c1 [Example 161, 3-{8-(2,6-difluorophenyl)-2-[[3-(dimethylamino)propyl](methyl)amino]-7-oxo-5,6,7,8-tetrahydropyrimido[4,5-d]pyrimidin-4-yl}-N,N-diethyl-4-methylbenzamide]
IC50 (TNFalpha; [4]): > 1000 nM
active in the assay (pIC50, p38α binding) (Recombinant human p38α [1]): active
melting point: 106 to 108 °C

Cc1cc(C(=O)NC(C)C)ccc1-c1nc(NCCN(C)C)nc2c1CNC(=O)N2c1c(F)cccc1F [104(c), 4-(8-(2,6-difluorophenyl)-2-{[2-(dimethylamino)ethyl]amino}-7-oxo-5,6,7,8-tetrahydropyrimido[4,5-d]pyrimidin-4-yl)-3-methyl-N-(1-methylethyl)benzamide trifluoroacetate]
IC50 (Recombinant human p38α [1]; [5]): > 15800 nM
IC50 (Recombinant human p38α [2]; [6]): ≥ 158 nM
IC50 [3]: > 100 nM

CCc1ccc(C(=O)O)cc1-c1nc(NCCN(C)C)nc2c1CNC(=O)N2c1c(F)cccc1F [Example 141, 3-(8-(2,6-difluorophenyl)-2-{[2-(dimethylamino)ethyl]amino}-7-oxo-5,6,7,8-tetrahydropyrimido[4,5-d]pyrimidin-4-yl)-4-ethylbenzoic acid]
IC50 (TNFalpha; [4]): > 1000 nM
IC50 (Recombinant human p38α [1]; [6]): ≥ 1260 nM

CNC(=O)c1ccc(-c2nc(NCCN(C)C)nc3c2CNC(=O)N3c2c(F)cccc2F)cc1 [Example 102, 4-(8-(2,6-difluorophenyl)-2-{[2-(dimethylamino)ethyl]amino}-7-oxo-5,6,7,8-tetrahydropyrimido[4,5-d]pyrimidin-4-yl)-N-methylbenzamide trifluoroacetate]
IC50 (Recombinant human p38α [1]; [5]): > 15800 nM
IC50 (Recombinant human p38α [2]; [6]): ≥ 158 nM

Cc1cc(C(N)=O)ccc1-c1nc(NCCN(C)C)nc2c1CNC(=O)N2c1c(F)cccc1F [Example 110, 4-(8-(2,6-difluorophenyl)-2-{[2-(dimethylamino)ethyl]amino}-7-oxo-5,6,7,8-tetrahydropyrimido[4,5-d]pyrimidin-4-yl)-3-methylbenzamide trifluoroacetate]
IC50 (Recombinant human p38α [1]; [5]): > 15800 nM
IC50 (Recombinant human p38α [2]; [7]): > 1580 nM
IC50 [3]: > 100 nM

Cc1ccc(C(=O)Nc2cccc(S(N)(=O)=O)c2)cc1-c1nc(NCCN(C)C)nc2c1CNC(=O)N2c1c(F)cccc1F [Example 226, N-[3-(aminosulfonyl)phenyl]-3-(8-(2,6-difluorophenyl)-2-{[2-(dimethylamino)-ethyl]amino}-7-oxo-5,6,7,8-tetrahydropyrimido[4,5-d]pyrimidin-4-yl)-4-methylbenzamide]
IC50 (TNFalpha; [4]): > 1000 nM

CCCNC(=O)c1ccc(-c2nc(NCCN(C)C)nc3c2CNC(=O)N3c2c(F)cccc2F)c(C)c1 [Example 105, 4-(8-(2,6-difluorophenyl)-2-{[2-(dimethylamino)ethyl]amino}-7-oxo-5,6,7,8-tetrahydropyrimido[4,5-d]pyrimidin-4-yl)-3-methyl-N-propylbenzamide trifluoroacetate]
IC50 (Recombinant human p38α [1]; [5]): > 15800 nM
IC50 (Recombinant human p38α [2]; [7]): > 1580 nM
IC50 [3]: > 100 nM

CCc1ccc(C(=O)Nc2ccc(F)c(F)c2)cc1-c1nc(NCCN(C)C)nc2c1CNC(=O)N2c1c(F)cccc1F [Example 143, N-(3,4-difluorophenyl)-3-(8-(2,6-difluorophenyl)-2-{[2-(dimethylamino)-ethyl]amino}-7-oxo-5,6,7,8-tetrahydropyrimido[4,5-d]pyrimidin-4-yl)-4-ethylbenzamide trifluoroacetate]
IC50 (TNFalpha; [4]): > 1000 nM

Cc1ccc(C(=O)NC(C)C)cc1-c1nc(N2CCCC2)nc2c1CNC(=O)N2c1c(F)cccc1F [Example 67, 3-[8-(2,6-difluorophenyl)-7-oxo-2-(1-pyrrolidinyl)-5,6,7,8-tetrahydropyrimido[4,5-d]pyrimidin-4-yl]-4-methyl-N-(1-methylethyl)benzamide]
IC50 (TNFalpha; [4]): > 1000 nM

CCN(CC)C(=O)c1ccc(C)c(-c2nc(N3CCN(C)CC3)nc3c2CNC(=O)N3c2c(F)cccc2F)c1 [Example 162, 3-[8-(2,6-difluorophenyl)-2-(4-methyl-1-piperazinyl)-7-oxo-5,6,7,8-tetrahydropyrimido[4,5-d]pyrimidin-4-yl]-N,N-diethyl-4-methylbenzamide]
IC50 (TNFalpha; [4]): > 1000 nM
IC50 (Recombinant human p38α [1]; [6]): ≥ 1260 nM
melting point: 201 to 205 °C (dec.)

Cc1ccc(C(=O)NC[C@@H](C)O)cc1-c1nc(NCCN(C)C)nc2c1CNC(=O)N2c1c(F)cccc1F [Example 128, 3-(8-(2,6-difluorophenyl)-2-{[2-(dimethylamino)ethyl]amino}-7-oxo-5,6,7,8-tetrahydropyrimido[4,5-d]pyrimidin-4-yl)-N-[(2R)-2-hydroxypropyl]-4-methylbenzamide]
IC50 (TNFalpha; [4]): > 1000 nM

Cc1ccc(C(=O)NC(C)C)cc1-c1nc(N2CCOCC2)nc2c1CNC(=O)N2c1c(F)cccc1F [Example 68, 3-[8-(2,6-difluorophenyl)-2-(4-morpholinyl)-7-oxo-5,6,7,8-tetrahydropyrimido[4,5-d]pyrimidin-4-yl]-4-methyl-N-(1-methylethyl)benzamide trifluoroacetate]
IC50 (TNFalpha; [4]): > 1000 nM

Cc1ccc(C(=O)NC[C@H](C)O)cc1-c1nc(NCCN(C)C)nc2c1CNC(=O)N2c1c(F)cccc1F [Example 129, 3-(8-(2,6-difluorophenyl)-2-{[2-(dimethylamino)ethyl]amino}-7-oxo-5,6,7,8-tetrahydropyrimido[4,5-d]pyrimidin-4-yl)-N-[(2S)-2-hydroxypropyl]-4-methylbenzamide]
IC50 (TNFalpha; [4]): > 1000 nM

Cc1c(F)cc(C(=O)NC(C)C)cc1-c1nc(NCCN(C)C)nc2c1CNC(=O)N2c1c(F)cccc1F [Example 111(c), 3-(8-(2,6-difluorophenyl)-2-{[2-(dimethylamino)ethyl]amino}-7-oxo-5,6,7,8-tetrahydropyrimido[4,5-d]pyrimidin-4-yl)-5-fluoro-4-methyl-N-(1-methylethyl)benzamide]
IC50 (TNFalpha; upper end printed as greater than 0.1 uM, read-out: IC50, range of data upon multiple runs): 40 to 100 nM

Cc1ccc(C(=O)NC(C)C)cc1-c1nc(N2CCC(n3c(=O)[nH]c4cc(Cl)ccc43)CC2)nc2c1CNC(=O)N2c1c(F)cccc1F [Example 73, 3-[2-[4-(5-chloro-2-oxo-2,3-dihydro-1H-benzimidazol-1-yl)-1-piperidinyl]-8-(2,6-difluorophenyl)-7-oxo-5,6,7,8-tetrahydropyrimido[4,5-d]pyrimidin-4-yl]-4-methyl-N-(1-methylethyl)benzamide trifluoroacetate]
IC50 (TNFalpha; [4]): > 1000 nM

CC(C)NC(=O)c1ccc(-c2nc(NCCN(C)C)nc3c2CNC(=O)N3c2c(F)cccc2F)cc1 [Example 97, 4-(8-(2,6-difluorophenyl)-2-{[2-(dimethylamino)ethyl]amino}-7-oxo-5,6,7,8-tetrahydropyrimido[4,5-d]pyrimidin-4-yl)-N-(1-methylethyl)benzamide trifluoroacetate]
IC50 (Recombinant human p38α [1]; [5]): > 15800 nM
IC50 (Recombinant human p38α [2]; [6]): ≥ 158 nM
